What all share (type): cell-based, human
In test [1] the test system is ULBP2 surface expression in 293T cells. Nature of the test: high-throughput screening of 5600 bioactive compounds, ULBP2 surface expression.
The test system of test [2] is NKG2DL mRNA in colon cancer cell lines. Nature of the test: qRT-PCR of NKG2DL mRNA. As to conditions: relative to DMSO. The protocol:
(§1) For qRT-PCR, total RNA was extracted from untreated or drug-treated tumor cells by using the RNA Clean & Concentrator (Zymo Research). All cDNA was generated by using the SuperScript VILO cDNA Synthesis kit (Life Technologies) and diluted 10-fold for analysis using the 7900HT Fast Real-time PCR System (Applied Biosystems). The data were calculated as the CT of target genes normalized to the CT of GAPDH of each sample. […] Differentially expressed transcripts were analyzed by ANOVA on Spotfire program.

For a further test, the system named is RXR-gamma. Nature of the test: RXR-gamma reporter assay. As to conditions: HCT116 cells. The procedure:
The Cignal RXR reporter assay system containing an RXR-gamma-responsive luciferase construct, which encodes the firefly luciferase reporter gene under the control of a minimal CMV promoter and tandem repeats of the RXR-gamma transcriptional response element, was purchased from Qiagen. The experiment was performed in HCT116 cells according to the manufacturer's instructions.

The next test has as its system TIMP2 and TIMP3. Nature of the test: qRT-PCR of TIMP2 and TIMP3 mRNA. As to conditions: CAL27 and all the colon cancer cell lines, 56 μM 3 days. The procedure: (§2) The number of cells that invaded the ECM was determined after 24 h. Data are expressed as percentage change in tumor invasion relative to that of DMSO-treated cells (n=3). (D) Wound healing by DMSO- and SPIR-treated HCT116, HT29, and CAL27 cells was compared. Data are calculated as the percentage change in distance of migration relative to that of DMSO-treated cells (n=3). […] Tumor xenografts and lung metastases were detected by bioluminescence imaging on day 25. Data are shown as the average total flux (photons/second)±standard deviation (n=8). (F) The lung metastases (arrows) were confirmed by examining lung tissue sections. * P≤0.05, ** P<0.01, *** P<0.005, **** P<0.0001.
as §1, with “sample. Primer sequences of the target genes were: MICA-F: 5′-[…]-3′, (SEQ ID NO: 14) MICA-R: 5′-[…]-[…]-3′, (SEQ ID NO: 15) MICB-F: 5′-[…]-3′, (SEQ ID NO: 16) MICB-R:5′-CCCTC-[…]-3′, (SEQ ID NO: 17), ULBP1-F:5′-[…]-3′, (SEQ ID NO: 18), ULBP1-R:5′-[…]-3′, (SEQ ID NO: 19), ULBP2-F:5′-[…]-3′, (SEQ ID NO: 20), ULBP2-R:5′-[…]-3′, (SEQ ID NO: 21), ULBP3-F:5′-[…]-TTCG-3′, (SEQ ID NO: 22), ULBP3-R:[…]-3′, (SEQ ID NO: 23), TIMP2-F:5′-[…]-[…]-3′, (SEQ ID NO: 24), TIMP2-R:[…]-3′, (SEQ ID NO: 25), TIMP3-F:5′-[…]-3′, (SEQ ID NO: 26), TIMP3-R:5′-[…]-[…]-3′ (SEQ ID NO: 27), GAPDH-F: 5′-[…]3′ (SEQ ID NO: 28), GAPDH-R: 5′-G-[…]-3′ (SEQ ID NO: 29).” for “sample.”

In test [3] the test system is HCT116, HT29, and CAL27 cells. The test can be described thus: wound-healing assay. As to conditions: HCT116, HT29, CAL27. The procedure:
as §2
Confluent cell layers of CAL27 and HT29 cells with a 500 μm±50 μm gap were formed by using Ibidi culture inserts (RPI Corp.). Gap distances were measured at various times using a Nikon Eclipse Ti inverted microscope and NIS-Elements software (Nikon).

For test [4], the system named is soluble ULBP2 from HCT116 cells. The test can be described thus: ULBP2 ELISA (shedding to culture supernatant). As to conditions: 56 μM, 3 days. The procedure: ULBP2 shed from cell surface to the culture supernatant was detected by ELISA method as described before (Waldhauer & Steinle. 2006. Cancer research 66:2520-2526). 100 μl (triplicate) of cultured supernatant was added into a 96-well plate pre-coated with 1 μg/ml of mouse anti-ULBP2 (BUMO1) and incubated at 4° C. overnight. The plate was washed and then incubated with mouse anti-ULBP2 (IgG2a, 100 μl/well at 1 μg/ml) for 1 h followed by incubation with HRP-conjugated goat anti-mouse IgG2a for 1 h at room temperature. TMB substrate was added and the plate was read using Victor^2 plate reader (Perkin Elmer).

Turning to `CC(=O)S[C@@H]1CC2=CC(=O)CC[C@]2(C)[C@H]2CC[C@@]3(C)[C@@H](CC[C@@]34CCC(=O)O4)[C@H]12` [SPIR, spironolactone], the “surface expression of ULBP2” value in test [1] is “significantly increased”. Moreover, the “NKG2DL mRNA levels” value in test [2] is recorded as “increase in mRNA levels”. Besides, the RXR-gamma-responsive luciferase activity result in the test with RXR-gamma (24 h) was “significantly increased”. The RXR-gamma protein level result in the test with RXR-gamma (Western blot) is “did not change”. Besides, the “mRNA expression of TIMP2 and TIMP3” value in the test on TIMP2 and TIMP3 was “significantly upregulated”. Also, the cell migration result in test [3] was “delayed cell migration”. Further, the “amount of soluble ULBP2” value in test [4] is given as “did not reduce but rather moderately increased”.

(Values after patent US10286000B2, “Retinoid X receptor-gamma agonists and retinoid X receptor-alpha antagonists for treatment of cancer” (St. Jude Children's Research Hospital, Inc., priority 2013, dated 2019).)
